In patent US20220331416A1, “COMBINED EXPRESSION OF A CHIMERIC CD3 FUSION PROTEIN AND AN ANTI-CD3-BASED BISPECIFIC T CELL ACTIVATING ELEMENT” (BIOTHEUS (SUZHOU) CO., LTD., priority 2019, published 2022):

Key:
[1] = tested on: CAIX CAB-T co-cultured with CAIX+MDA-MB231; experiment: Dasatinib inhibition of cytokine release of CAIX CAB-T; type: cell-based; details: activated CAIX CAB-T, co-cultured overnight
[2] = tested on: HER2 CAB-T co-cultured with SKBR3; experiment: Dasatinib inhibition of cytokine release of HER2 CAB-T; type: cell-based; details: activated HER2 CAB-T, co-cultured overnight
[3] = tested on: HER2 CAB-T co-cultured with SKBR3; experiment: Dasatinib inhibition of killing activity of HER2 CAB-T (LDH); details: E:T 5:1, over 12 hours
[4] = tested on: CAIX CAB-T co-cultured with CALX+MDA-MB231; details: E:T 5:1, over 12 hours
Method: Briefly, 5×10^4 effector cells (CAIX CAB-T or HER2 CAB-T) and 1×10^4 target cells (CALX+MDA-MB231 or SKBR3) were co-cultured with a gradient concentration of dasatinib (100 nM, 50 nM, 25 nM, 12.5 nM, 6.25 nM, 0 nM), Cytotoxicity of CAB-T to its target cells were determined in 2-hour intervals over a period of 12 hours [effector-to-target cell (E:T) ratio, 5:1].

Cc1nc(Nc2ncc(C(=O)Nc3c(C)cccc3Cl)s2)cc(N2CCN(CCO)CC2)n1 [dasatinib]
dose at which IFNγ secretion is inhibited effectively [1]: around 25 nM
dose at which IL-2 secretion is inhibited effectively [1]: around 25 nM
dose at which IFNγ secretion is inhibited effectively [2]: around 25 nM
dose at which IL-2 secretion is inhibited effectively [2]: around 25 nM
dose at which cytotoxicity to target cells is inhibited effectively [3]: around 50 nM
dose at which cytotoxicity to target cells is inhibited effectively [4]: around 50 nM
